# PMC4175002, “The Design and Synthesis of Potent and Selective Inhibitors of Trypanosoma brucei Glycogen Synthase Kinase 3 for the Treatment of Human African Trypanosomiasis” (Journal of Medicinal Chemistry, 2014)
# What was measured:
# Assay type in all cases: biochemical
# ERK1 = biological target: T1, ERK1 (Homo sapiens, UniProt P27361); experiment: Mammalian kinase profiling (DSTT panel); conditions: 10 μM; average percentage of remaining activity
# T1 construct: purchased Division of Signal Transduction Therapy (DSTT), University of Dundee
# Method: (§1) To assess the selectivity of the aminopyrazole inhibitors, remaining activity at 10 μM concentration was measured for compounds 4f, 4m, and 4y against a panel of 80 human PKs and for compound 9g against 124 human PKs. […] Compound 4m inhibited only two PKs, namely GSK3β and CDK2, at more than 80%.
# (§2) Selected compounds were screened against a panel of mammalian kinases routinely run by the Division of Signal Transduction Therapy (DSTT) at the University of Dundee in duplicate at 10 μM.[32] Enzymes included in the panel and assay conditions are reported in the literature. All biochemical assays are run below the Km^app for the ATP for each enzyme, allowing comparison of inhibition across the panel.
# IRR = biological target: T2, IRR (Homo sapiens, UniProt P14616); experiment: Mammalian kinase profiling (DSTT panel); conditions: 10 μM; average percentage of remaining activity
# T2 construct: purchased Division of Signal Transduction Therapy (DSTT), University of Dundee
# Method: as §1, §2
# YES1 = biological target: T3, YES1 (Homo sapiens, UniProt P07947); experiment: Mammalian kinase profiling (DSTT panel); conditions: 10 μM; average percentage of remaining activity
# T3 construct: purchased Division of Signal Transduction Therapy (DSTT), University of Dundee
# Method: as §1, §2
# CAMKKb = biological target: T4, CAMKKb (Homo sapiens, UniProt Q96RR4); experiment: Mammalian kinase profiling (DSTT panel); conditions: 10 μM; average percentage of remaining activity
# T4 construct: purchased Division of Signal Transduction Therapy (DSTT), University of Dundee
# Method: as §1, §2
# CK2 = biological target: T5, CK2 (Homo sapiens, UniProt P68400); experiment: Mammalian kinase profiling (DSTT panel); conditions: 10 μM; average percentage of remaining activity
# T5 construct: purchased Division of Signal Transduction Therapy (DSTT), University of Dundee
# Method: as §1, §2
# SRPK1 = biological target: T6, SRPK1 (Homo sapiens, UniProt Q96SB4); experiment: Mammalian kinase profiling (DSTT panel); conditions: 10 μM; average percentage of remaining activity
# T6 construct: purchased Division of Signal Transduction Therapy (DSTT), University of Dundee
# Method: as §1, §2
# ROCK2 = biological target: T7, ROCK2 (Homo sapiens, UniProt O75116); experiment: Mammalian kinase profiling (DSTT panel); conditions: 10 μM; average percentage of remaining activity
# T7 construct: purchased Division of Signal Transduction Therapy (DSTT), University of Dundee
# Method: as §1, §2
# MSK1 = biological target: T8, MSK1 (Homo sapiens, UniProt O75582); experiment: Mammalian kinase profiling (DSTT panel); conditions: 10 μM; average percentage of remaining activity
# T8 construct: purchased Division of Signal Transduction Therapy (DSTT), University of Dundee
# Method: as §1, §2
# EPH A2 = biological target: T9, EPH A2 (Homo sapiens, UniProt P29317); experiment: Mammalian kinase profiling (DSTT panel); conditions: 10 μM; average percentage of remaining activity
# T9 construct: purchased Division of Signal Transduction Therapy (DSTT), University of Dundee
# Method: as §1, §2
# CK1 = biological target: T10, CK1 (Homo sapiens, UniProt P48730); experiment: Mammalian kinase profiling (DSTT panel); conditions: 10 μM; average percentage of remaining activity
# T10 construct: purchased Division of Signal Transduction Therapy (DSTT), University of Dundee
# Method: as §1, §2
# BTK = biological target: T11, BTK (Homo sapiens, UniProt Q06187); experiment: Mammalian kinase profiling (DSTT panel); conditions: 10 μM; average percentage of remaining activity
# T11 construct: purchased Division of Signal Transduction Therapy (DSTT), University of Dundee
# Method: as §1, §2
# VEG-FR = biological target: T12, VEG-FR (Homo sapiens, UniProt P17948); experiment: Mammalian kinase profiling (DSTT panel); conditions: 10 μM; average percentage of remaining activity
# T12 construct: purchased Division of Signal Transduction Therapy (DSTT), University of Dundee
# Method: as §1, §2
# EPH-B3 = biological target: T13, EPH-B3 (Homo sapiens, UniProt P54753); experiment: Mammalian kinase profiling (DSTT panel); conditions: 10 μM; average percentage of remaining activity
# T13 construct: purchased Division of Signal Transduction Therapy (DSTT), University of Dundee
# T13 sequence (P54753 34-998): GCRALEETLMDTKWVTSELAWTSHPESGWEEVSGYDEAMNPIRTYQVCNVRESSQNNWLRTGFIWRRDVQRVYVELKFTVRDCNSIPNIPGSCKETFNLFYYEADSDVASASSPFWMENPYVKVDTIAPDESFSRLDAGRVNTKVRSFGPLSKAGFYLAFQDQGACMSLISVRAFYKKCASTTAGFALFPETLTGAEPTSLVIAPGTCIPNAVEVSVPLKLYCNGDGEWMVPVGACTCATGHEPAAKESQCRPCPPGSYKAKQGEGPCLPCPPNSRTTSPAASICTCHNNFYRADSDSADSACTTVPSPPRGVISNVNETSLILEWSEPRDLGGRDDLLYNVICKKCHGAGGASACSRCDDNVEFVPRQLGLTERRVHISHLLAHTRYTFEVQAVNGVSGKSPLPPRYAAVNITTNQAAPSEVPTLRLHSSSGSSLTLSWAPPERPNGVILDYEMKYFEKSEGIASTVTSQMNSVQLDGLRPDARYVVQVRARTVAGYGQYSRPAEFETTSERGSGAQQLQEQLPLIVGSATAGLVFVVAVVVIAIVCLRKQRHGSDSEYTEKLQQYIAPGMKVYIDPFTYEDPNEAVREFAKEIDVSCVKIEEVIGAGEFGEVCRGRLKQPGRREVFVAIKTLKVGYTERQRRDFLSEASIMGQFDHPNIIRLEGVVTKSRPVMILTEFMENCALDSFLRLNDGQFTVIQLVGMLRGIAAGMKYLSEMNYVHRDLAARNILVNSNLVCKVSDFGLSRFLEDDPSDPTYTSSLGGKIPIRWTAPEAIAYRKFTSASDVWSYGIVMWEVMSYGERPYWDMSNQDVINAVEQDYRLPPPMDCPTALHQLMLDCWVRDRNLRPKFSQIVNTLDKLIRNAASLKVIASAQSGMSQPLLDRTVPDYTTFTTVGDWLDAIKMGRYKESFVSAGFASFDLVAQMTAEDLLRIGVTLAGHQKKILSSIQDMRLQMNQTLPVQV
# Method: as §1, §2
# SYK = biological target: T14, SYK (Homo sapiens, UniProt P43405); experiment: Mammalian kinase profiling (DSTT panel); conditions: 10 μM; average percentage of remaining activity
# T14 construct: purchased Division of Signal Transduction Therapy (DSTT), University of Dundee
# Method: as §1, §2
# S6K1 = biological target: T15, S6K1 (Homo sapiens, UniProt P23443); experiment: Mammalian kinase profiling (DSTT panel); conditions: 10 μM; average percentage of remaining activity
# T15 construct: purchased Division of Signal Transduction Therapy (DSTT), University of Dundee
# Method: as §1, §2
# PIM2 = biological target: T16, PIM2 (Homo sapiens, UniProt Q9P1W9); experiment: Mammalian kinase profiling (DSTT panel); conditions: 10 μM; average percentage of remaining activity
# T16 construct: purchased Division of Signal Transduction Therapy (DSTT), University of Dundee
# Method: as §1, §2
# PAK4 = biological target: T17, PAK4 (Homo sapiens, UniProt O96013); experiment: Mammalian kinase profiling (DSTT panel); conditions: 10 μM; average percentage of remaining activity
# T17 construct: purchased Division of Signal Transduction Therapy (DSTT), University of Dundee
# Method: as §1, §2
# PKCa = biological target: T18, PKCa (Homo sapiens, UniProt P17252); experiment: Mammalian kinase profiling (DSTT panel); conditions: 10 μM; average percentage of remaining activity
# T18 construct: purchased Division of Signal Transduction Therapy (DSTT), University of Dundee
# Method: as §1, §2
# HsGSK3β = HsGSK3β (Homo sapiens, UniProt P49841); experiment: Radiometric Flashplate potency assay, HsGSK3β; conditions: ratio of IC50 values
# Method: For compound potency determinations, a radiometric 96-well Flashplate assay (PerkinElmer) was adopted. Compounds were solubilized in DMSO at a top concentration of 3 mM and serially diluted to achieve 10-point titration of final assay concentrations from 30 μM to 0.3 nM with a final DMSO concentration of 1% (v/v). The reaction mixtures contained 1 μM biotinylated GSP2 substrate, 1 μM ATP, 3.7 KBq/well [γ-33P]-ATP and 2.5 nM TbGSK3 in the TbGSK3 kinase assay buffer. GSK3 inhibitors were screened for selectivity assessment also against HsGSK3β. For HsGSK3 assay, the reaction mixes contained 1 μM biotinylated GSP2 substrate, 2 μM ATP, 7.4 KBq/well [γ-33P]-ATP and 15 nM HsGSK3β in the TbGSK3 kinase assay buffer (25 mM Tris-HCl, pH 7.5, 10 mM MgCl2, 5 mM DTT, 0.02% CHAPS, 2 U/mL heparin). For HsCDK2/cyclin A assay, the reaction mixtures contained 1 mM CDK5 biotinylated peptide substrate (Biotin-C6-PKTPKKAKKL), 1 μM ATP, 7.4 KBq/well [γ-^33P]-ATP and 2 nM HsCDK2/cyclin A in the kinase assay buffer (50 mM Tris-HCl, pH 7.5, 10 mM MgCl2, 2 mM DTT, 100 mM NaCl, 0.2 mM EGTA, 0.02% (v/v) Brij35).
# This implies that a difference of >0.3 in pIC50 can be considered statistically significant for this assay.
# T11 sequence (Q06187 whole entry): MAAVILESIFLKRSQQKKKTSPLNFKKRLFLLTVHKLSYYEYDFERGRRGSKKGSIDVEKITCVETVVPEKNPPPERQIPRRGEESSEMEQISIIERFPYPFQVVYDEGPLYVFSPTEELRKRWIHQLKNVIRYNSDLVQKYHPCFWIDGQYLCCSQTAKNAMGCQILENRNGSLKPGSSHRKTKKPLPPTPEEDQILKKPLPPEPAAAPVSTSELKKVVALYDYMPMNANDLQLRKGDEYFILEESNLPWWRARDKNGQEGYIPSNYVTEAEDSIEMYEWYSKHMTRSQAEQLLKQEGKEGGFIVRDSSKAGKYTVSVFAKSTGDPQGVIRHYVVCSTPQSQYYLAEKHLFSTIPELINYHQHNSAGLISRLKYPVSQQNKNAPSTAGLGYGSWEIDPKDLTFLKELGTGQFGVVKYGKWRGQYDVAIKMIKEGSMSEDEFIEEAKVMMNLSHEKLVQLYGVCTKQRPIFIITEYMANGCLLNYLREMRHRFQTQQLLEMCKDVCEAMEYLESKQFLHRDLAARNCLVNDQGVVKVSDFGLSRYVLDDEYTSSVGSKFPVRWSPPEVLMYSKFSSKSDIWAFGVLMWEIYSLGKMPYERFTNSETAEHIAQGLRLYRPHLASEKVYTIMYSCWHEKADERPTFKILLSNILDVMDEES
# T12 sequence (P17948 27-1338): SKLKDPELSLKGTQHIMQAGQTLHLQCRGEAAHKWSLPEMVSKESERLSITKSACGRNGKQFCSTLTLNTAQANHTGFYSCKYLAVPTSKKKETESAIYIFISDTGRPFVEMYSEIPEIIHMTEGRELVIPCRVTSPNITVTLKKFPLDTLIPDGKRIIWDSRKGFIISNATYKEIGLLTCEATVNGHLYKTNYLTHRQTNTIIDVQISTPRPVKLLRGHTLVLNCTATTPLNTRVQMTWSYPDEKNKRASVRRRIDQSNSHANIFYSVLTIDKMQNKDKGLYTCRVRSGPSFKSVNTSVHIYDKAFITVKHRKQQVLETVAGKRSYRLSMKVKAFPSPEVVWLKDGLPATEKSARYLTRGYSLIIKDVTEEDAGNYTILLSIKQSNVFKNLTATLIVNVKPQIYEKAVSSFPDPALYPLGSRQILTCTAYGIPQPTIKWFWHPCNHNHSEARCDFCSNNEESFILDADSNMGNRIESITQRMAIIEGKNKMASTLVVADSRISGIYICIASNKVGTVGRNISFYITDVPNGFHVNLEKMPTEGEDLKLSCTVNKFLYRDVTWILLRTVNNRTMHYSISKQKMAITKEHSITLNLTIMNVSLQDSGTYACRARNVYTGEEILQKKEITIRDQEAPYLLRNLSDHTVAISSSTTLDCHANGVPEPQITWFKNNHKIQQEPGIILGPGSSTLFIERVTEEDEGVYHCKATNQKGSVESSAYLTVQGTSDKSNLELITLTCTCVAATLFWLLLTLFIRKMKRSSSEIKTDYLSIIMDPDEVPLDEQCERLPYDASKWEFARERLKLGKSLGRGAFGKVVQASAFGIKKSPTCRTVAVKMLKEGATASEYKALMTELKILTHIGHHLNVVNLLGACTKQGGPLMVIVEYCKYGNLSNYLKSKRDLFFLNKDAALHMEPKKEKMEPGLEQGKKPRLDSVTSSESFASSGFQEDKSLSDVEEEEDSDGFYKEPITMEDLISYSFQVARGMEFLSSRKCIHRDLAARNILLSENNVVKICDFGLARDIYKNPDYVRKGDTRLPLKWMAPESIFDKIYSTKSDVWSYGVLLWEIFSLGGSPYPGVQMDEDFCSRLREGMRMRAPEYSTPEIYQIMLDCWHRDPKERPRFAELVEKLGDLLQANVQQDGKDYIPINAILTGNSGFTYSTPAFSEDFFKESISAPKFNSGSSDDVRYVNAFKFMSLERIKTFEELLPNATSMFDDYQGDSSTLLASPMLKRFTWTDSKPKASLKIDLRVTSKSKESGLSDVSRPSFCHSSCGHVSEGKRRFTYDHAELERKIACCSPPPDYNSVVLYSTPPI
# T2 sequence (P14616 27-1297): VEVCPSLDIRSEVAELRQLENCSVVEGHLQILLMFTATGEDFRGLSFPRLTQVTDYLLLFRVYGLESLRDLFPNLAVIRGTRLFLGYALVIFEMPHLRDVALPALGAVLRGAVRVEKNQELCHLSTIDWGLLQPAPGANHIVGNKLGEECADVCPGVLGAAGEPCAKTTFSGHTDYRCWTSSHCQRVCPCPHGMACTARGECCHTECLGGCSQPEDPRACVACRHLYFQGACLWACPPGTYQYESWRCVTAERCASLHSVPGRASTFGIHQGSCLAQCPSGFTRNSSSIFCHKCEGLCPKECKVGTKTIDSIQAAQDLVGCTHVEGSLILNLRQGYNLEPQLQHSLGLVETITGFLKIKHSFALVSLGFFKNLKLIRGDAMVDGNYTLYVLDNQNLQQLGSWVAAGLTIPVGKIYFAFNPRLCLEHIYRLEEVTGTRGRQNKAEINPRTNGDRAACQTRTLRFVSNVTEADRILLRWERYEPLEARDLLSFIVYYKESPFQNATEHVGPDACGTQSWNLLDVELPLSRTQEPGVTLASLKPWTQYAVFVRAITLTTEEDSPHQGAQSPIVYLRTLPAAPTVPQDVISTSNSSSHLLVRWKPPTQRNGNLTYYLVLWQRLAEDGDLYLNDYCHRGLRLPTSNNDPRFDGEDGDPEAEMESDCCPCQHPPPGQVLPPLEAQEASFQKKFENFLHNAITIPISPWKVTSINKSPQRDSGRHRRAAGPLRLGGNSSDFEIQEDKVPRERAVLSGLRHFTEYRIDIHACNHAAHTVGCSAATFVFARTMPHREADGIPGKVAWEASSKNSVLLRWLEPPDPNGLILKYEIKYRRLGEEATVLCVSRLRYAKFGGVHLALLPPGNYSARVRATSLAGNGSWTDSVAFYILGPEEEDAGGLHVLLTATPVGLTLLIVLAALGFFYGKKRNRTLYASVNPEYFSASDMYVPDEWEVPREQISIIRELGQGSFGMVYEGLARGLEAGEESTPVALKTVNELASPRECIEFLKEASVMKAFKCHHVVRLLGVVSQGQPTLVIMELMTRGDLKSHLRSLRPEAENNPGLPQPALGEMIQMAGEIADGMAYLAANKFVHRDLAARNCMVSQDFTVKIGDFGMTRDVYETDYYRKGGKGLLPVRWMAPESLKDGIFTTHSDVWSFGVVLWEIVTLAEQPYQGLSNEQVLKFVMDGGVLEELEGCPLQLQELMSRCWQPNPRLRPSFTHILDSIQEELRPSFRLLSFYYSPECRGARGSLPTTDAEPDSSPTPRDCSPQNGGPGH
# T9 sequence (P29317 24-976): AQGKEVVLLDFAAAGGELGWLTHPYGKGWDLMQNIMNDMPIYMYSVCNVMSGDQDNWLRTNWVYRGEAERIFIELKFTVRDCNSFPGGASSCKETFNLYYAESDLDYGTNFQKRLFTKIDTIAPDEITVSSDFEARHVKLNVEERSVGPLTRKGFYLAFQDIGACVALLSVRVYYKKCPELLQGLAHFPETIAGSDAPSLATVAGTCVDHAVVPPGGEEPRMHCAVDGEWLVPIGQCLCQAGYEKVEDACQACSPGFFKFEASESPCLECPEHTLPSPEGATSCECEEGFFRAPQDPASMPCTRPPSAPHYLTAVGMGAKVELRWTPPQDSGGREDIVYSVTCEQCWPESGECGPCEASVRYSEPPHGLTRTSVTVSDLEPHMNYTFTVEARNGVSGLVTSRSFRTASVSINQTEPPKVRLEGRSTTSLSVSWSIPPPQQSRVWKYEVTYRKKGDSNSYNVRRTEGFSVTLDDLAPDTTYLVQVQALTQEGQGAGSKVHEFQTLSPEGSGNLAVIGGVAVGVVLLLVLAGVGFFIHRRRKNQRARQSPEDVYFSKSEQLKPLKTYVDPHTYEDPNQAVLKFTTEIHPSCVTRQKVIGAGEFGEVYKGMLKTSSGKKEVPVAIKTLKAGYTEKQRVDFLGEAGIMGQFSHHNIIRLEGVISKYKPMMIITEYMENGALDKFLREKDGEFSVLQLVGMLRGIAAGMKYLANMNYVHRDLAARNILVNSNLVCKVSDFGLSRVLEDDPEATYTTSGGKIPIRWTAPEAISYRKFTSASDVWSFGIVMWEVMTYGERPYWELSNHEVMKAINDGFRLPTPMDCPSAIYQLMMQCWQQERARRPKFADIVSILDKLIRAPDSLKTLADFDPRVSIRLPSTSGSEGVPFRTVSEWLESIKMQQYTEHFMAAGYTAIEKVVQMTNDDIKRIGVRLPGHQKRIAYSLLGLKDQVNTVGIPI
# HsGSK3β, sequence (P49841 whole entry): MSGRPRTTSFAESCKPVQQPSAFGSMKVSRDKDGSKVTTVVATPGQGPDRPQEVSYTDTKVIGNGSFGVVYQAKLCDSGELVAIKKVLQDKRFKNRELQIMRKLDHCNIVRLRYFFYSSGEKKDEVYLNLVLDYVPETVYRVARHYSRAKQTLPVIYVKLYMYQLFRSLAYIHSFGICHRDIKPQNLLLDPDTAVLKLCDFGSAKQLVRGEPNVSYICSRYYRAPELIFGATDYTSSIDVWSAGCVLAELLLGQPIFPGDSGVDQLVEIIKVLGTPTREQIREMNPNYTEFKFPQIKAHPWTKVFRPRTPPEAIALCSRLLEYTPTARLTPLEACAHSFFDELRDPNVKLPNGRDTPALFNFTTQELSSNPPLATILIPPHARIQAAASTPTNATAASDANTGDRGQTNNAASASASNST
# T16 sequence (Q9P1W9 whole entry): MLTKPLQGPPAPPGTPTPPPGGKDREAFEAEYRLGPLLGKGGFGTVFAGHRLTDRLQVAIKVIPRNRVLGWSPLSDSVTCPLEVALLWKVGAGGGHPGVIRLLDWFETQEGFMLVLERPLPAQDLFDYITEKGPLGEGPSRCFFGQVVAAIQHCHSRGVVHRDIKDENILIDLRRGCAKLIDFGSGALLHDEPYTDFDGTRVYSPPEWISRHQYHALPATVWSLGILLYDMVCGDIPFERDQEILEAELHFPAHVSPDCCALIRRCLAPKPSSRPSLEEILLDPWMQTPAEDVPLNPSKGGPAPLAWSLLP
Structure (SMILES),ERK1 activity compared to the control (ERK1),IRR activity compared to the control (IRR),YES1 activity compared to the control (YES1),CAMKKb activity compared to the control (CAMKKb),CK2 activity compared to the control (CK2),SRPK1 activity compared to the control (SRPK1),ROCK2 activity compared to the control (ROCK2),MSK1 activity compared to the control (MSK1),EPH A2 activity compared to the control (EPH A2),CK1 activity compared to the control (CK1),BTK activity compared to the control (BTK),VEG-FR activity compared to the control (VEG-FR),EPH-B3 activity compared to the control (EPH-B3),SYK activity compared to the control (SYK),S6K1 activity compared to the control (S6K1),PIM2 activity compared to the control (PIM2),PAK4 activity compared to the control (PAK4),PKCa activity compared to the control (PKCa),ratio HsGSK3β/TbGSK3 (HsGSK3β)
"CO[C@H]1CC[C@H](NC(=O)c2n[nH]cc2NC(=O)c2ccccc2)CC1 [Compound 4f, 4-Benzamido-N-(4-methoxycyclohexyl)-1H-pyrazole-3-carboxamide]",75%,39%,100%,34%,74%,90%,81%,80%,100%,55%,100%,52%,60%,78%,100%,90%,68%,49%,>0.21
"COc1cccc(OC)c1C(=O)Nc1c[nH]nc1C(=O)NC1CCC(OC)CC1 (stereo not drawn) [Compound 4m, 4-(2,6-Dimethoxybenzamido)-N-(4-methoxycyclohexyl)-1H-pyrazole-3-carboxamide]",100%,87%,79%,50%,100%,78%,74%,86%,100%,88%,100%,90%,100%,100%,100%,97%,74%,90%,<2.5
"CO[C@H]1CC[C@H](NC(=O)c2n[nH]cc2NC(=O)c2ccc(-c3ccccc3)o2)CC1 [Compound 4y, N-(4-Methoxycyclohexyl)-4-(5-phenylfuran-2-carboxamido)-1H-pyrazole-3-carboxamide]",33%,26%,45%,27%,21%,72%,72%,66%,100%,25%,100%,29%,72%,70%,58%,82%,27%,48%,<0.72
